Experimental data as given in patent US20220249463A1, “METHODS OF ALTERING CARDIAC REMODELING USING COMPOUNDS THAT PROMOTE GLUCOSE OXIDATION” (IMBRIA PHARMACEUTICALS, INC., priority 2019, published 2022).

Assays:
[1] = Stability of CV-8972 forms in solvents, X-ray powder diffraction; type: physicochemical
Description: Samples from batch 289-MBA-15-A (containing form B) were added to various solvents, incubated under various conditions, and analyzed by X-ray powder diffraction.
Samples from batch 289-MBA-16 (containing forms A and B) were added to various solvents, incubated under various conditions, and analyzed by X-ray powder diffraction.
Samples from batch S-18-0030513 (containing form A) were added to various solvents, incubated under various conditions, and analyzed by X-ray powder diffraction.

TAC mice [2] = test: TAC mice, six weeks treatment: heart weight and heart weight/body weight; type: in vivo; settings: 6 weeks
TAC mice [3] = test: TAC mice: left ventricular pressure with Mikro-tip catheter; type: in vivo; settings: end of 6-week treatment
TAC mice [4] = test: TAC mice: echocardiography; type: in vivo
TAC mice [5] = test: TAC mice: cardiac fibrosis, Masson's trichrome; type: in vivo; settings: end of 6-week experiment
[6] = TMZ 6, NA 2.4, CV-8814 7.5, CV-8972 10 mg/kg/day

XRPD results ([1]; batch 289-MBA-15-A (containing form B), ACN/H2O (90:10) Aw = 0.83, Slurry, RT, 5 d): Form A
XRPD results ([1]; batch 289-MBA-15-A (containing form B), Acetone/H2O (90:10) Aw = 0.72, Slurry, RT, 5 d): Form A
XRPD results ([1]; batch 289-MBA-15-A (containing form B), EtOAc/H2O (97:3) Aw = 0.94, Slurry, RT, 5 d): Form A
XRPD results ([1]; batch 289-MBA-15-A (containing form B), EtOAc, Slurry, RT, 5 d): Form A + Form B
XRPD results ([1]; batch 289-MBA-15-A (containing form B), EtOH/H2O (90:10) Aw = 0.52, Slurry, RT, 5 d): Form A
XRPD results ([1]; batch 289-MBA-15-A (containing form B), EtOH, CC from 60° C.): Form C + minor Form A
XRPD results ([1]; batch 289-MBA-15-A (containing form B), EtOH, Slurry, RT, 3 d): Form A + Form B
XRPD results ([1]; batch 289-MBA-15-A (containing form B), IPA/H2O (90:10) Aw = 0.67, Slurry, RT, 5 d): Form A
XRPD results ([1]; batch 289-MBA-15-A (containing form B), IPA/H2O (98:2) Aw = 0.26, Slurry, RT, 5 d): Form A
XRPD results ([1]; batch 289-MBA-15-A (containing form B), MEK, Slurry, RT, 5 d): Form A
XRPD results ([1]; batch 289-MBA-15-A (containing form B), MeOH/H2O (80:20) Aw = 0.48, Slurry, RT, 5 d): Form A
XRPD results ([1]; batch 289-MBA-15-A (containing form B), MeOH/H2O (95:5) Aw = 0.16, Slurry, RT, 5 d): Form A
XRPD results ([1]; batch 289-MBA-15-A (containing form B), MeOH, Slurry, RT, 5 d): Form A + Form B
XRPD results ([1]; batch 289-MBA-15-A (containing form B), no solvent, 100° C., 20 minutes, result wraps over r24-r26: Form B, shifted with minor Form A): Form B,
XRPD results ([1]; batch 289-MBA-16 (containing forms A and B), EtOAc, Attempted to dissolve at ~60° C., solids remained, cooled slowly to RT, let stir at RT from 60° C. (Table 60)): Form A + Form B
XRPD results ([1]; batch 289-MBA-16 (containing forms A and B), EtOAc, SC from 60° C. (Table 63)): Form A + Form B
XRPD results ([1]; batch 289-MBA-16 (containing forms A and B), EtOH, SC from 60° C.): Form A + Form C
XRPD results ([1]; batch 289-MBA-16 (containing forms A and B), EtOH, Slurry, RT, 3 d (Table 60)): Form A + Form B
XRPD results ([1]; batch 289-MBA-16 (containing forms A and B), EtOH, Slurry, RT, 3 d (Table 63)): Form A + Form B
XRPD results ([1]; batch 289-MBA-16 (containing forms A and B), MeOH/H2O (95:5), Slurry, overnight, 1 g scale): Form A
XRPD results ([1]; batch 289-MBA-16 (containing forms A and B), MeOH, VD w/ MTBE (Table 63)): Form A
XRPD results ([1]; batch 289-MBA-16 (containing forms A and B), MeOH, Vapor diffusion w/ MTBE (Table 60)): Form A
XRPD results ([1]; batch 289-MBA-16 (containing forms A and B), THF, SC from 60° C.): Form B
XRPD results ([1]; batch S-18-0030513 (containing form A), CHCl3, Slurry, RT): Form A
XRPD results ([1]; batch S-18-0030513 (containing form A), EtOAc, Slurry, RT): Form A
XRPD results ([1]; batch S-18-0030513 (containing form A), EtOH, Crash cool from 70° C.): Form A + Form C
XRPD results ([1]; batch S-18-0030513 (containing form A), MEK/H2O 99:1, Slow cool from 70° C.): Form A
XRPD results ([1]; batch S-18-0030513 (containing form A), THF, Slurry, RT): Form A
XRPD results ([1]; batch S-18-0030513 (containing form A), no solvent, 80° C., 20 minutes): Form A with slight peak shifting
XRPD results ([1]; batch S-18-0030513 (containing form A), no solvent, 97% RH Stress of Form A dried at 80° C. for 20 min): Form A
XRPD results ([1]; batch S-18-0030513 (containing form A), no solvent, 100° C., 20 minutes): Form B + Form A, shifted
XRPD results ([1]; batch S-18-0030513 (containing form A), no solvent, VO, RT): Form A
Structure (SMILES): COc1ccc(CN2CCN(CCOC(=O)c3cccnc3)CC2)c(OC)c1OC [CV-8972, 2-(4-(2,3,4-trimethoxybenzyl)piperazin-1-yl)ethyl nicotinate]
cardiac remodeling in TAC mice (in words) (TAC mice [2]; [6]): effectively inhibited cardiac remodeling
cardiac mass (TAC mice [2]; TAC mice, TMZ 6, CV-8814 7.5, CV-8972 10 mg/kg/day, osmotic minipump): 225 ± 11 mg
heart weight to body weight ratio (TAC mice [2]; TAC mice, TMZ 6, NA 2.4, CV-8814 7.5, CV-8972 10 mg/kg/day, subcutaneous osmotic minipump): 7.4 ± 0.3 mg/g
+dp/dtm (TAC mice [3]): 4541±395 mm Hg/sec
-dp/dtm (TAC mice [3]): −4126±339 mm Hg/sec
left ventricular developed pressure (LVDP) (TAC mice [3]; [6]): 116±9 mm Hg
EF (in words) (TAC mice [4]; 3-weeks after TAC): significantly increased
IVRT (TAC mice [4]; 3-weeks after TAC): 32 ± 1 ms
IVSd (TAC mice [4]; 3-weeks after TAC): 1.29±0.04 mm
LV mass (TAC mice [4]; 3-weeks after TAC): 154 ± 8 mg
left ventricular FS (TAC mice [4]; 3-weeks after TAC, CV-8814 7.5, CV-8972 10 mg/kg/day): 47%±3%
IVRT (TAC mice [4]; 6-weeks after TAC): 31 ± 2 ms
IVSd (TAC mice [4]; 6-weeks after TAC): 1.26±0.04 mm
LV mass (TAC mice [4]; 6-weeks after TAC): 156 ± 10 mg
left ventricular FS (TAC mice [4]; 6-weeks after TAC (end of the experiment)): 46%±3%
cardiac functions in TAC mice (in words) (TAC mice [4]; conclusion, 6 weeks treatment): improved cardiac functions
EF (in words) (TAC mice [4]; to the end of the study (6 weeks)): protective effect was sustained to the end of the study
cardiac fibrosis (fibrotic area to whole heart tissue area) (TAC mice [5]): 6.6±0.6%
